Test results reported in patent US8378125B2, “Substance FKI-3864 and method for preparation thereof” (School Juridical Person Kitasato Institute, priority 2008, dated 2013).
Read-outs that look alike come from different tables or passages of the source.

What was measured:
[1] = test system: synthesis of intracellular triacylglycerols; assay: Inhibitory activity on the synthesis of intracellular triacylglycerols, [14C] oleic acid incorporation in CHO-K1 cells; assay type: cell-based, Chinese hamster; conditions: [1-14C] oleic acid, 6 hours incubation, read-out: IC50, inhibition of formation of [14C] triacylglycerols
Description: The inhibitory activity on the synthesis of intracellular triacylglycerols of substance FKI-3864 according to the invention was tested in the manner described below.
Chinese hamster ovary cells (CHO-K1 cells) adjusted to 5.0×10^5 cells/mL with HAMs F12 medium (10% FBS, containing Penicillin/Streptomycin) were distributed on a 48-well plate in aliquots of 250 μL.
Then, after the cells were incubated at 37° C. for 12 hours in a 5% carbon dioxide gas incubator to adhere the cells, substance FKI-3864 (2.5 μL as a methanol solution) and [1−^14C] oleic acid (5 μL, 1.85 kBq, 1 nmol) were added, and incubation was continued for additional 6 hours.
The supernatant of the culture was removed, and after 0.1% SDS-Tris/HCl (pH 7.5, 120 μL) was added for lysis of the cells, neutral fat in the cells was extracted by the Bligh & Dyer method. After the extract was concentrated, it was spotted on a TLC (silica gel plate, Merck, 0.5 mm in thickness) and developed with a solvent of hexane/diethyl ether/acetic acid (70:30:1, v/v/v), and the quantity of isolated [^14C] triacylglycerols was determined with BAS 2000 (Fuji Film).
Using the same manner as in Test 1, the inhibitory activities on the synthesis of intracellular triacylglycerols of substances FKI-3864-1 and FKI-3864-2 were measured. […] In addition, the activities of mixtures in which substances FKI-3864-1 and FKI-3864-2 were mixed at different ratios are shown in Table 2.

Solubility in solvents = assay type: physicochemical
Text: (7) Solubility in solvents: Soluble in methanol, chloroform, and ethyl acetate; insoluble in water.

SMILES: CCCCCC(O)CC(O)CC1Cc2cc3cc(OC)c(-c4c(OC)cc5cc6c(c(O)c5c4O)C(=O)OC(CC(O)CC(O)CCCCC)C6)c(O)c3c(O)c2C(=O)O1 (single isomer, unassigned) [FKI-3864-1]
- IC50 [1]: ≥ 12000 nM
- Solubility in solvents: methanol, chloroform, and ethyl acetate (Solubility in solvents): Soluble
- Solubility in solvents: water (Solubility in solvents): insoluble

SMILES: CCCCCC(O)CC(O)CC1Cc2cc3cc(OC)c(-c4c(OC)cc5cc6c(c(O)c5c4O)C(=O)OC(CC(O)CC(O)CCCCC)C6)c(O)c3c(O)c2C(=O)O1 (single isomer, unassigned) [FKI-3864-2]
- IC50 [1]: 540 nM
- Solubility in solvents: methanol, chloroform, and ethyl acetate (Solubility in solvents): Soluble
- Solubility in solvents: water (Solubility in solvents): insoluble

SMILES: CCCCCC(O)CC(O)CC1Cc2cc3cc(OC)c(-c4c(OC)cc5cc6c(c(O)c5c4O)C(=O)OC(CC(O)CC(O)CCCCC)C6)c(O)c3c(O)c2C(=O)O1 (stereo not drawn) [FKI-3864]
- IC50 ([1]; Cricetulus griseus, CHO-K1, 6 h): 93 nM
- Solubility in solvents: methanol, chloroform, and ethyl acetate (Solubility in solvents): Soluble
- Solubility in solvents: water (Solubility in solvents): insoluble
